# Assay results published in US9862690B2, “Treatment of pulmonary and other conditions” (University of Pittsburgh—of the Commonwealth System of …, priority 2013, dated 2018).
# Key:
# Type in all cases: in vivo
# [1] = system: mice (lung, kidney, liver and other organs); assay: Toxicity of long-term, high-dose nebulized delivery; details: 25 mg/kg or 250 mg/kg aerosolized daily up to 30 days
# Protocol: PB141 was delivered to mice by nebulization at doses of 25 or 250 mg/kg for up to 30 days. (A) Lungs were excised, sectioned, and examined histologically for evidence of inflammation or injury. (B) Potential kidney and liver injury were assessed by serum levels of creatinine, AST, and ALT. […] Acute lung injury was induced in mice by intratracheal administration of LPS. Thirty min later PBS or varying concentrations of PB141 were delivered into cage air by nebulization. Following sacrifice, nuclear proteins were isolated from lungs and used to determine DNA-binding activity of the p65 subunit of the pro-inflammatory transcription factor NF-κB.
# PB141 (25 mg/kg or 250 mg/kg) was aerosolized to mice daily for up to 30 consecutive days. The standard dose used in efficacy studies is 25 mg/kg for 1-10 days. At the conclusion of each experiment blood was collected and the lungs were excised and examined histopathologically for evidence of injury or toxicity. Serum levels of creatinine and aspartate (AST) and alanine (ALT) aminotransferases were measured using enzyme-linked immunosorbent assay (ELISA) kits (R&D Systems, Minneapolis, Minn.) according to the manufacturer's instructions. At the end of 30 days' exposure, other organs were also excised and similarly examined (data not shown).
# [2] = system: cigarette smoke-induced COPD in mice; assay: Cigarette smoke-induced COPD model
# Protocol: COPD was induced by exposure of mice to whole-body cigarette smoke for 5 days, at the end of which the mice were euthanized and cells and levels of mediators were obtained from the pulmonary airspace by bronchoalveolar lavage. Some mice received PB141 (25 mg/kg) simultaneously with the cigarette smoke (A-I).
# Mice were exposed 5 days per week for 4 wk (sub-acute exposure) to the smoke of five cigarettes (Reference Cigarette 2R4F without filter; University of Kentucky) administered four times per day with a 30-min smoke-free interval between exposures. An optimal smoke:air ratio of 1:6 was obtained. In preventive studies, tobacco smoke exposure was paralleled by delivery of a nebulized solution containing PB141 (25 mg/kg) or vehicle (saline) via a micropump nebulizer (Buxco Research Systems, Wilmington, N.C.). At the conclusion of smoke exposure the extent of lung inflammation was assessed by counting polymorphonuclear neutrophils (PMNs) in bronchoalveolar lavage fluid and measuring lung vascular permeability, edema, pulmonary lymphoid aggregation, and generation of inflammatory chemokines and cytokines. Emphysema was assessed by destruction of alveolar walls, quantitated as the destructive index (DI), and by enlargement of alveolar spaces, quantitated by the mean linear intercept (Lm). Airway remodeling was assessed by staining collagen in the airway wall and by measuring the amount of fibronectin. Lung histology sections were assessed for inflammation and injury following hematoxylin and eosin (H&E) staining. Lymphoid aggregates were quantification by morphometric analysis.
# [3] = system: OVA allergen-induced asthma in mice; assay: Ovalbumin-induced asthma model; details: 25 mg/kg nebulized 30 min after each OVA challenge
# Protocol: Allergen-induced asthma was produced in mice by initial sensitization by intraperitoneal (i.p.) injection of OVA on days 0 and 7 and challenge by intratracheal injection of OVA on even-numbered days 14 through 22. Thirty minutes following each OVA challenge, PB141 (25 mg/kg) or vehicle (saline) was nebulized and delivered to cage air via a micropump nebulizer. Twenty-four hours after the last challenge and nebulization; airway hyperresponsiveness to increasing concentrations of inhaled methacholine was determined by the forced oscillation (flexiVent) method. (A) Airway resistance. (B) Airway elastance. Data are representative of one of two independent experiments with n=6-8 mice per group.
# Allergen induced asthma was produced in mice by initial sensitization by intraperitoneal (i.p.) injection of OVA on days 0 and 7 and challenge by intratracheal injection of OVA on even-numbered days 14 through 22. Thirty minutes after each OVA challenge, PB141 (25 mg/kg) or vehicle (saline) was nebulized and delivered to cage air via a micropump nebulizer. Twenty-four hours following the last challenge and nebulization, BAL fluid, plasma, and lung samples were obtained. (A) Total and differential cell count in BAL fluid. (B) Microscopic examination following staining of BAL fluid. (C) H2O2 production, (D) Protein concentration in BAL fluid. Data are representative of one of two independent experiments with n=7-10 mice per group; *** p<0.001.
# Allergen-induced asthma was produced in mice by initial sensitization by intraperitoneal (i.p.) injection of OVA on days 0 and 7 and challenge by intracheal injection of OVA on even-numbered days 14 through 22. Thirty minutes after each OVA challenge, PB141 (25 mg/kg) or vehicle (saline) was nebulized and delivered to cage air via a micropump nebulizer. Twenty-four hours following the last challenge and nebulization lung samples were obtained. The lung was examined histologically following (A) H&E staining, (B) trichrome staining, and (C) periodic acid Schiffs (PAS) staining. Data are representative of one of two independent experiments with n=7-10 mice per group.
# Allergen induced asthma was produced in mice by initial sensitization by intraperitoneal injection of OVA on days 0 and 7 and challenge by intratracheal injection of OVA on even-numbered days 14 through 22. […] Twenty-four hours following the last challenge and nebulization. airway hyperresponsiveness to methacholine challenge was measured noninvasively by whole body plethysmography (WBP; Buxco Research Systems, Wilmington, N.C.) and, invasively by computer-controlled ventilator (flexiVent; SCIREQ Inc., Montreal, Canada). Cellular Infiltration into the airspace was assessed by measuring myeloperoxidase activity in the lung and the number of polymorphonuclear neutrophils and eosinophils in bronchoalveolar lavage fluid (BALF). Lung inflammation was assessed by vascular permeability, edema, and cytokine generation. Anti-OVA IgE concentrations in the serum were measured using an ELISA kit (MD Bioproducts, St. Paul, Minn.). Lung histology sections were assessed by morphometry, with May-Grünwald-Giemsa or Periodic acid-Schiff (PAS) staining used for detection of mucopolysaccharide accumulation, Sirius Red or Masson's trichrome staining for detection of collagen deposition, and hematoxylin and eosin (H&E) staining for assessment of inflammation. Lung collagen content was determined by quantifying soluble collagen with the Sircol Collagen Assay Kit (Biocolor).
# [4] = 25 mg/kg nebulized in parallel with smoke exposure
structure (smiles),measurement,setting,value
CC(=O)N[C@@H](CSC(CC(=O)CC(SC[C@H](NC(C)=O)C(=O)O)c1cnccn1)c1cnccn1)C(=O)O (stereo partly shown) [PB141],"Injury or toxicity (lung histopathology, serum creatinine, AST, ALT, other organs)",[1],No evidence of injury or toxicity
same,Airway wall remodeling,[2]; [4],significantly decreased
same,Cigarette smoke-induced increase of inflammatory cells in the lungs,[2]; [4],significantly decreased
same,Development of pulmonary hypertension,[2]; [4],significantly decreased
same,Emphysema,[2]; [4],significantly decreased
same,Generation of inflammatory chemokines and cytokines,[2]; [4],significantly decreased
same,Pulmonary lymphoid aggregates,[2]; [4],significantly decreased
same,Phagocytic ability of alveolar macrophages,[2]; administration by nebulization,improved
same,Airway hyperresponsiveness to methacholine,[3],significantly suppressed
same,Airway remodeling,[3],lessening
same,"Expression of cytokines, chemokines, and IgE in BALF and serum",[3],attenuated
same,Infiltration of inflammatory cells into the airspace and lung,[3],suppressed
same,Mucus accumulation,[3],lessening
